{
  "source": "ChEMBL document CHEMBL1201862",
  "about": "“PubChem BioAssay data set” (2004)",
  "key": {"[1]": {"biological_target": "Cytochrome P450 2D6 (Homo sapiens, UniProt P10635)", "sequence (P10635 whole entry)": "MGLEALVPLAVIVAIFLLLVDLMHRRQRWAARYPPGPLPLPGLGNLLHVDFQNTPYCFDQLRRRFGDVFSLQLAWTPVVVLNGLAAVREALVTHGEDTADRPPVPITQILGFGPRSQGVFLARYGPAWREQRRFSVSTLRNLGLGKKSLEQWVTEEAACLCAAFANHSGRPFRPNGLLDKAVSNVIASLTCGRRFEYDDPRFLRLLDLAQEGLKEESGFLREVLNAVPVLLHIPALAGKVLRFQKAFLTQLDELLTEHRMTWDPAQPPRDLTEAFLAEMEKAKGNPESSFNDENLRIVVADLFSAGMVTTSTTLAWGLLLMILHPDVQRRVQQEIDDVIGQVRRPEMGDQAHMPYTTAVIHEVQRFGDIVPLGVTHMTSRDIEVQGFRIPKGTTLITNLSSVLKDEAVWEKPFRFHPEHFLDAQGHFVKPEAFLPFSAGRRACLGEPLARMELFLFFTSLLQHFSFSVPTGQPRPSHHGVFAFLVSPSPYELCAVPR", "test": "qHTS Assay for Inhibitors and Substrates of Cytochrome P450 2D6. [Related pubchem assays: 410 ]", "type": "ADME", "settings": "read-out: Potency"}, "[2]": {"biological_target": "T1, Neuropeptide Y receptor type 1 (Homo sapiens, UniProt P25929)", "T1 sequence (P25929 whole entry)": "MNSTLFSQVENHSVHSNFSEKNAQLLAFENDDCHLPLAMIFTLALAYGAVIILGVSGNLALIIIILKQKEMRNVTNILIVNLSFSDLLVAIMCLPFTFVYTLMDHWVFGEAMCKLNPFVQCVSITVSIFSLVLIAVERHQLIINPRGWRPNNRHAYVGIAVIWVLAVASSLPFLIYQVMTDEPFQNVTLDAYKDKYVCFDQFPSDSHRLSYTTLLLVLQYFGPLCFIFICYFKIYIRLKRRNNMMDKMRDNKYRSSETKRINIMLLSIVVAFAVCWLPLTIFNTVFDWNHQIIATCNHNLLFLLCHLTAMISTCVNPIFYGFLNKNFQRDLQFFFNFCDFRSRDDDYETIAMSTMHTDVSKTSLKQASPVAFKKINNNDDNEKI", "type": "functional"}, "[3]": {"biological_target": "T2, Neuropeptide Y receptor type 2 (Homo sapiens, UniProt P49146)", "T2 sequence (P49146 whole entry)": "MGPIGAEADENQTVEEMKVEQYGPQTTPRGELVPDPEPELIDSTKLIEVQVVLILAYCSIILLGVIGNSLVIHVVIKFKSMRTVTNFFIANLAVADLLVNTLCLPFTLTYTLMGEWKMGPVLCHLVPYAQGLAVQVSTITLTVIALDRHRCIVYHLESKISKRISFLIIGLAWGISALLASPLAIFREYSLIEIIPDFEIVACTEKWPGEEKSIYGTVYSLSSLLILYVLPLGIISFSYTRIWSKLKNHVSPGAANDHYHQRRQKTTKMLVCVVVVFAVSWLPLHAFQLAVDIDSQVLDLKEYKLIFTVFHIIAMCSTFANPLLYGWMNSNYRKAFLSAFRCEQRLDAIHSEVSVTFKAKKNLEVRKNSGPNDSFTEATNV", "type": "functional, cell-based"}, "[4]": {"test": "Counterscreen for IDE inhibitors: Luminescence-based cell-based high throughput dose response assay to identify compounds that are cytotoxic to HEK cells. [Related pubchem assays: 434962 (Primary screen (IDE inhibitors in singlicate)), 449730 (Counterscreen (Cytotoxicity in triplicate)), 435028 (Confirmation (IDE inhibitors in triplicate)) …", "type": "functional", "settings": "HEK293"}, "[5]": {"biological_target": "T3, Insulin-degrading enzyme (Homo sapiens, UniProt P14735)", "T3 sequence (P14735 whole entry)": "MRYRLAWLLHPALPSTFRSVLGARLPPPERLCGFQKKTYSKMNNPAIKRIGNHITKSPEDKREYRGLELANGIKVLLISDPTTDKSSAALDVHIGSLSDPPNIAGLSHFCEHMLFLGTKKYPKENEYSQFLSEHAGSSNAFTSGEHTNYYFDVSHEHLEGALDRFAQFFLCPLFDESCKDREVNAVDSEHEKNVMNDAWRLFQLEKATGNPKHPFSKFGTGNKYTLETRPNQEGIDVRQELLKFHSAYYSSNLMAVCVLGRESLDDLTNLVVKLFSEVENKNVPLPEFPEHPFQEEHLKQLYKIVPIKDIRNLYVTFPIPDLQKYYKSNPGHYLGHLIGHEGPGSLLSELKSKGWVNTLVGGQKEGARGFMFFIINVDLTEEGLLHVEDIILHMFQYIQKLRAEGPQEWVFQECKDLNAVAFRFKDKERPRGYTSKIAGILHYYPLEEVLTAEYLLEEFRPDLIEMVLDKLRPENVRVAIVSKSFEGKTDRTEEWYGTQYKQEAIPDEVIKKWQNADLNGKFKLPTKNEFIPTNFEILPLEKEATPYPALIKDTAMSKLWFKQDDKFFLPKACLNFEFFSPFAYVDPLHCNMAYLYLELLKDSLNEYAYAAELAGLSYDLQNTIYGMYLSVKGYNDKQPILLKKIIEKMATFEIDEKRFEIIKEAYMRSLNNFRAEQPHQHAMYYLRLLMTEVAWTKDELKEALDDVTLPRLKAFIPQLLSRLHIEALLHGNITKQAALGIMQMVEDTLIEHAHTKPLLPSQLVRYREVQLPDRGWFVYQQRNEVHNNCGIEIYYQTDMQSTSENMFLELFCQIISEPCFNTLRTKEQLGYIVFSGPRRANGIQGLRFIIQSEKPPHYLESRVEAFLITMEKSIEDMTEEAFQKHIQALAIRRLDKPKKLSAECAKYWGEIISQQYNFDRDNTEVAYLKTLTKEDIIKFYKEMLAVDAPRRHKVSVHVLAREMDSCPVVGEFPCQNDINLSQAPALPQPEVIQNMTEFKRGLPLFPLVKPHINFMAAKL", "test": "Dose Response: Fluorescence polarization-based cell-based high throughput dose response assay for inhibitors of insulin-degrading enzyme (IDE). [Related pubchem assays: 434962 (Primary screen (IDE inhibitors in singlicate)), 449730 (Counterscreen (Cytotoxicity in triplicate)), 435028 (Confirmation (IDE inhibitors in triplicate)), 434984 (Summary …", "type": "functional"}, "[6]": {"biological_target": "T4, Corticotropin-releasing factor receptor 2/Corticotropin-releasing factor-binding protein (Homo sapiens, UniProt P24387+Q13324)", "T4 sequence (Q13324 whole entry)": "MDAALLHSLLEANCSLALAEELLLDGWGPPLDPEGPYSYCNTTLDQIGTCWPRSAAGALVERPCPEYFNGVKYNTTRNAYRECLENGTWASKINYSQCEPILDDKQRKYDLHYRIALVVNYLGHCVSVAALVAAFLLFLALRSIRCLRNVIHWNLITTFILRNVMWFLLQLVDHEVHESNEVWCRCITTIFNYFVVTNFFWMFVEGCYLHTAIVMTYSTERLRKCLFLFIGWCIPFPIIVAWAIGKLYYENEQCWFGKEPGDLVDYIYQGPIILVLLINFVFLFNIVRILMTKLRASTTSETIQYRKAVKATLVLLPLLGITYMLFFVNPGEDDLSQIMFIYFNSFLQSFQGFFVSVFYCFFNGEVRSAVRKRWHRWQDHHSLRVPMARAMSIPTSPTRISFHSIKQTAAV", "T4 sequence (P24387 whole entry)": "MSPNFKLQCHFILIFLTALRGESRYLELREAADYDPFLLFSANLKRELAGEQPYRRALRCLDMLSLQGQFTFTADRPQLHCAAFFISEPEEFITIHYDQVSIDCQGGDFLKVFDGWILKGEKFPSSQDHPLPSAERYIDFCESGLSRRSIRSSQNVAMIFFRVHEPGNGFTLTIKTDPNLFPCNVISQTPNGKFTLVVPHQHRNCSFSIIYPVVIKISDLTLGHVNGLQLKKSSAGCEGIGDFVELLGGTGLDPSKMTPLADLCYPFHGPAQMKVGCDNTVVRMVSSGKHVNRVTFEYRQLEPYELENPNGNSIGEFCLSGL", "test": "activators of CRF receptor 2 with binding protein – uHTS hits, confirmation (AID 602473)", "type": "functional", "settings": "read-out: EC50_Mean"}, "[7]": {"biological_target": "Lysosomal acid glucosylceramidase (Homo sapiens, UniProt P04062)", "sequence (P04062 whole entry)": "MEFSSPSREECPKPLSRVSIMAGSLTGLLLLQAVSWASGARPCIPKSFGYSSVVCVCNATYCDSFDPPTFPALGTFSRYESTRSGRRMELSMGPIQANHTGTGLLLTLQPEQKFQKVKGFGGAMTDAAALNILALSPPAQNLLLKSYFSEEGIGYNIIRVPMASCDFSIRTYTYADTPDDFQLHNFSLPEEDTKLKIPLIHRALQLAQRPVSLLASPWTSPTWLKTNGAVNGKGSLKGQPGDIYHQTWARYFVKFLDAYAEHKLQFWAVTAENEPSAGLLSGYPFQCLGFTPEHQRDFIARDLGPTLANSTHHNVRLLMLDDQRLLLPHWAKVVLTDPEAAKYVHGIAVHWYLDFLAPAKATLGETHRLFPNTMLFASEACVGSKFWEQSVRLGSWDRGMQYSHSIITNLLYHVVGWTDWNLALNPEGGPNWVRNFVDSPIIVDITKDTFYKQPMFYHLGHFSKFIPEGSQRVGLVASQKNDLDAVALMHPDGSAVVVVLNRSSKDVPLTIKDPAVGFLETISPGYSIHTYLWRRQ", "test": "Dose response cell-based high throughput screening assay to identify enhancers of beta-glucosidase activity. [Related pubchem assays: 784 ]", "type": "functional"}, "[8]": {"test_system": "Streptococcus sp. 'group A'", "test": "Streptococcus pyogenes SK(-)GAS viability under kanamycin – luminescence, BacTiterGlo, confirmation, counter-screen for streptokinase expression inhibitor project, dose response (AID 1900)", "type": "functional, organism-based"}, "[9]": {"test_system": "Streptococcus", "test": "Luminescence Microorganism-Based Dose Response Follow up to Identify Compounds Cytotoxic to Streptococcus. [Related pubchem assays: 1677 (Project Summary), 1915, 1914, 1902 (Retest at Dose), 1900 (Counter Screen), 1662 (Primary HTS)]", "type": "functional, organism-based"}, "[10]": {"biological_target": "T5, Streptokinase A (Streptococcus pyogenes serotype M1, UniProt P10520)", "T5 sequence (P10520 whole entry)": "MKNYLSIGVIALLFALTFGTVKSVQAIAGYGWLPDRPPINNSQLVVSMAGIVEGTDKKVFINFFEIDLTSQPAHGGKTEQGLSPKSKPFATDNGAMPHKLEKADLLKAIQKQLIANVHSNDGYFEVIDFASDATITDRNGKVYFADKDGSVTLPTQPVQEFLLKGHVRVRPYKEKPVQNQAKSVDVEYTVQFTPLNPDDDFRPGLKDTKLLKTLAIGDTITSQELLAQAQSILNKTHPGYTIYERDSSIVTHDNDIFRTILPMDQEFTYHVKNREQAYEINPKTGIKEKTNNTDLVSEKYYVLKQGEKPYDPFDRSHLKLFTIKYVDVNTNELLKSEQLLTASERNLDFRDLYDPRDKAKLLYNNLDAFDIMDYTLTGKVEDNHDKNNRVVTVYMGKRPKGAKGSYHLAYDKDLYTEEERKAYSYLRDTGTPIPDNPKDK", "test": "viability-normalized secreted streptokinase activity reduction – plasminogen activation absorbance, OD405, dose response (AID 1914);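 further: secreted streptokinase activity via plasminogen activation per viability signal from cell pellet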", "type": "functional, Streptococcus pyogenes M1 GAS"}, "[11]": {"test": "Trypanosoma cruzi growth suppression in host cells – NIH3T3 host cells, beta-gal luminescence, confirmation (AID 2044);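 further: luminescent beta-galactosidase reporter signal from transgenic T. cruzi replicating inside host cells; inhibitors lower the luminescence signal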", "type": "functional, cell-based"}, "[12]": {"test": "microbe, parasite or virus in culture", "type": "functional", "settings": "Mycobacterium tuberculosis"}, "[13]": {"test": "NIH3T3 cell viability loss – ATP luminescence, mouse fibroblasts, counter-screen, dose response (AID 2010);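 further: cells exposed to compound for about 90 hours before reading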", "type": "functional, cell-based"}, "[14]": {"test_system": "Streptococcus", "test": "GAS UMAA2166 growth inhibition – luminescence, BacTiterGlo, counter-screen for streptokinase expression inhibitor project, dose response (AID 1915)", "type": "functional, organism-based"}},
  "note": "Activity calls are given as the source filed them.",
  "data": [
    {"molecule": "COc1ccc([C@@H]2CC(=O)c3c(O)cc(O)cc3O2)cc1O", "note": "[HESPERETIN]", "values": [
      {"measurement": "AC50", "setting": "[1]", "value": "39.8 µM (inconclusive)"}
    ]},
    {"molecule": "CCOc1nc(SCCOc2ccc(Cl)cc2Cl)nc(N(C)C)n1", "values": [
      {"measurement": "IC50", "setting": "[2]", "value": "5.54 µM (active)"},
      {"measurement": "IC50", "setting": "[3]", "value": "5.52 µM (active)"}
    ]},
    {"molecule": "CCN1/C(=C\\C=C(C(C)=O)C(C)=O)Sc2ccccc21", "values": [
      {"measurement": "IC50", "setting": "[4]", "value": "33.9 µM (not active)"},
      {"measurement": "IC50", "setting": "[5]", "value": "8.83 µM (active)"},
      {"measurement": "EC50", "setting": "[6]", "value": "4.9 µM (active)"}
    ]},
    {"molecule": "CC(CS(=O)(=O)c1cccc2cccnc12)N1CCCCC1", "note": "(centres undefined)", "values": [
      {"measurement": "EC50", "setting": "[7]", "value": "> 50 µM (not active)"}
    ]},
    {"molecule": "Cc1cc(C)c2nc(-c3ccncc3)cc(C(=O)N3CCN(Cc4ccccc4Cl)CC3)c2c1", "values": [
      {"measurement": "EC50", "setting": "[8]", "value": "3.71 µM (active)"},
      {"measurement": "EC50", "setting": "[9]", "value": "9.94 µM (active)"},
      {"measurement": "EC50", "setting": "[10]", "value": "10.3 µM (active)"},
      {"measurement": "EC50", "setting": "[11]", "value": "2.35 µM (active)"},
      {"measurement": "CC50", "setting": "[12]", "value": "> 40 µM (active)"},
      {"measurement": "EC50", "setting": "[13]", "value": "> 60 µM (not active)"},
      {"measurement": "EC50", "setting": "[14]", "value": "> 150 µM (not active)"}
    ]}
  ]
}
